Paper PMC6689897, “Drugging an undruggable pocket on KRAS” (Proceedings of the National Academy of Sciences of the …, 2019)

Test system: NCI-H358 cells
Test: pERK quantification (Meso Scale Discovery)
Type: cell-based, human
Description: Active RAS signals through RAF and MEK to induce phosphorylation of ERK (phospho-ERK). Phospho-ERK levels were quantified using a plate-based electrochemiluminescent assay (MESO SCALE DISCOVERY). […]
252 (175 cm2) using RPMI medium supplemented with 10% fetal bovine serum. Cultures
253 were incubated at 37 °C and 5% CO2 in a humidified atmosphere, with medium change
254 or subcultivation 2-3 times a week. […]
257 atmosphere, with medium change or subcultivation 2-3 times a week. In case starvation
258 conditions were used in combination with EGF stimulation, cells were kept in medium
260 stimulation (50ng/mL) for 10 minutes. […]
308 The next day the compounds (30µL of serial dilutions) were added in triplicates. The
310 nano molar minimum. Compounds (Stock: 10mM in 100% DMSO) were diluted in
311 medium. Cells were incubated at 37°C and 5% CO2 in a humidified atmosphere for 14
312 days. […]
315 wavelength was 544/15 nm, emission 590 nm. Data were fitted by iterative calculation
316 using a sigmoidal curve analysis program based on GraphPAD Prism with variable hill
319 MAPK pathway signaling (pERK, pAKT quantification)
320 MSD 96-well multispot assays for Phospho/Total ERK1/2 and Phospho(Ser473)/Total
321 AKT whole cell lysate kits (Meso Scale Discovery, Gaithersburg, MD, #K15107D,
322 #K15100D) were used according to the manufacturer’s instructions. Briefly, 50.000
323 cells were seeded per well and grown in 96 well plates. Cells were washed in ice cold
324 PBS and lysed in 50µL ice-cold lysis buffer supplemented with the provided protease
325 inhibitors. MSD plates were blocked for 1h, washed and 40µL of lysate was added in
326 duplicates to wells and incubated at room temperature for 3 hours while shaking at
327 400rpm. To measure the amount of phosphorylated AKT or ERK, the specific primary
328 antibody was added for 1 hour. After washing, read buffer was added and the plates
329 were measured on a SECTOR 6000 instrument (Meso Scale Discovery). Samples were
330 normalized to total ERK or total AKT values, respectively.
332 RAS GTP detection (Ras G-LISA Activation assay):
333 Ras-GTP levels were analyzed using a Ras G-LISA assay kit (Cytoskeleton Inc.,
335 600.000 cells were seeded in 6 wells and grown to 70% confluence. Cells were washed
337 provided protease inhibitor cocktail. Lysates were quickly frozen in liquid nitrogen
338 and stored at -80°C until further usage. After normalizing protein concentration, 40µg
339 of protein was added in duplicates to wells of the Ras G-LISA plate coated with Ras
340 GTP-binding protein and incubated at 4°C for 30 minutes while shaking at 400rpm. […]
344 HRP detection reagent. Absorbance was measured by 490nm using an EnSpire
345 Multimode Reader (Perkin Elmer). Background was determined by a negative control […]

C=CC(=O)N1CCN(c2ncnc3c(F)c(-c4c(O)cccc4F)c(Cl)cc23)CC1 [ARS-1620, reference compound]
inhibition of pERK compared with 1 (high growth factor conditions, 2 h): similar, albeit more extended, inhibition of pERK

Cn1cnc(Cn2ccc3ccc(CNCc4[nH]c5ccccc5c4[C@H]4NC(=O)c5ccc(O)cc54)cc32)c1 [Compound 1]
EC50 (Homo sapiens, NCI-H358, high growth factor conditions, 2 h, read-out: EC50 inhibition of pERK relative to total ERK): 5.8 µM | pERK levels (starved 24 h low serum, 2 h compound, then EGF): dose-dependently reduced

CN(C)Cc1[nH]c2ccccc2c1[C@H]1NC(=O)c2ccc(O)cc21 [Compound 18]
decrease in phospho-ERK levels (at 50 µM, 2 h after treatment): almost complete inhibition
